Structures are written as SMILES. Calls of active or inactive are those of the source. The rule behind the calls is not given here.

The target of the assay is Serine/threonine-protein kinase mTOR (Homo sapiens) (UniProt P42345). In words: mTOR FRB domain ligand binding – biophysical, NMR (AID 1648). The settings on record: NMR binding to FRB domain, chemical shift.
Serine/threonine-protein kinase mTOR (Homo sapiens), sequence (P42345 2015-2114): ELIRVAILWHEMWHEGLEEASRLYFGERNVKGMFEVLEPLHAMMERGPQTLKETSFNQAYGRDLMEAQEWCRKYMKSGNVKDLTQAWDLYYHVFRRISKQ
Turning to `Cc1oc(S(=O)(=O)N2CCCCC2)cc1C(=O)O`, the Kd (as a rule, the equilibrium constant for the complex coming apart) was > 4 mM (inactive).

Turning to `Cc1ccc(CNc2ccc(O)cc2)cc1`, the Kd is > 4 mM (inactive).

`O=C(O)c1[nH]nc2c1COc1ccccc1-2`: the Kd was > 4 mM (inactive).

With `O=C(Nc1ccccn1)C(=O)N1CCCC1`, the Kd is > 4 mM (inactive).

For `C/C=C/COc1nc2c(c(=O)n(C)c(=O)n2C)n1C`, the Kd is > 4 mM (inactive).

For `CC(=O)N1N=C(N)SC1c1cccnc1` (stereo unspecified), the Kd is > 4 mM (inactive).

Consider `O=c1[nH]c2sc3c(c2c2ncnn12)CCCC3`, for which the Kd was > 4 mM (inactive).

Consider `C=C(C)[C@@H]1CC[C@]2(CO)CC[C@]3(C)[C@H](CCC4[C@@]5(C)CC[C@H](O)C(C)(C)C5CC[C@]43C)C12` (stereo partly specified), for which the Kd was > 4 mM (inactive).

Take `Nc1n[nH]c(=S)n1-c1ccccc1`: the Kd is > 4 mM (inactive).

Regarding `CC1(C)Oc2ccc(N)cc2O1`, the Kd is > 4 mM (inactive).

Turning to `O=c1c2ccccc2[nH]c2ncccc12`, the Kd was > 4 mM (inactive).

Take `CC(=O)Oc1c2c(c(CC=C(C)C)c3c1C(=O)C1=C[C@@H]4CC5C(C)(C)OC(C/C=C(\C)C(=O)O)(C4=O)[C@@]15O3)OC(C)(CCC=C(C)C)C=C2` (stereo partly specified): the Kd was > 4 mM (inactive).

As for `CCC[C@H]1CC2=C(C[C@@H](CC)CC3=C1C(=O)OC3=O)C(=O)OC2=O`, the Kd is > 4 mM (inactive).

For the molecule `NCCCCN=C(N)N`, the Kd is > 4 mM (inactive).

On to `COc1ccc(C(C)=O)c(OC)c1`, for which the Kd is > 4 mM (inactive).

With `Cc1cccc(CSc2nncc(=O)[nH]2)c1`, the Kd is > 4 mM (inactive).

Take `CN(C)c1n[nH]c(=O)[nH]c1=O`: the Kd is > 4 mM (inactive).

As to `COC1=CC(=O)C[C@@H](C)[C@]12Oc1c(Cl)c(OC)cc(OC)c1C2=O`, the Kd is > 4 mM (inactive).

With `c1ccc(CNc2ncnc3nc[nH]c23)nc1`, the Kd was > 4 mM (inactive).

Take `CSc1ccccc1NC(=O)c1ccc(C)o1`: the Kd is > 4 mM (inactive).

On to `OC(CCl)c1ccc(-n2cncn2)cc1` (stereo unspecified), for which the Kd was > 4 mM (inactive).

With `Cn1c(CN)nc2ccccc21`, the Kd is > 4 mM (inactive).

Turning to `C=C(C)[C@H]1Cc2c(ccc3c2O[C@@H]2COc4cc(OC)c(OC)cc4[C@@H]2C3=O)O1`, the Kd was > 4 mM (inactive).

For the molecule `Cc1ccc(-n2ncc(C#N)c2/N=C/N(C)C)cc1`, the Kd is > 4 mM (inactive).

For `COC(=O)[C@]1(C)CCC[C@]2(C)c3ccc(C(C)C)cc3C(=O)CC12` (stereo partly specified), the Kd is > 4 mM (inactive).

Consider `Cc1nc(N2CCOCC2)[nH]c(=O)c1C`, for which the Kd was > 4 mM (inactive).

For `C[C@H]1O[C@@H](O[C@H]2[C@@H](O)C[C@H](O[C@H]3[C@@H](O)C[C@H](O[C@H]4CC[C@]5(C)C6C[C@@H](O)[C@]7(C)[C@@H](C8=CC(=O)OC8)CC[C@]7(O)C6CC[C@@H]5C4)O[C@@H]3C)O[C@@H]2C)C[C@H](O)[C@@H]1O` (stereo partly specified), the Kd was > 4 mM (inactive).

Turning to `COc1cc(O)c(C(=O)c2ccccc2)cc1O`, the Kd is > 4 mM (inactive).

For `COc1ccc(-c2cc(=O)c3c(O)cc(O[C@H]4O[C@H](CO[C@@H]5O[C@@H](C)[C@H](O)[C@@H](O)[C@H]5O)[C@@H](O)[C@H](O)[C@H]4O)cc3o2)cc1`, the Kd is > 4 mM (inactive).

For the molecule `Cc1occc1C(=O)N1CCN(S(C)(=O)=O)CC1`, the Kd is > 4 mM (inactive).

For the molecule `O=C(O)CSCc1c(F)cccc1Cl`, the Kd is > 4 mM (inactive).

Take `OCc1ccccc1N1CCOCC1`: the Kd is > 4 mM (inactive).

Take `CC(=O)Nc1ccc(-c2cn3ccsc3n2)cc1`: the Kd is > 4 mM (inactive).

For `COc1cccc2onc(N)c12`, the Kd was > 4 mM (inactive).

`COc1ccccc1-c1nc(=S)[nH][nH]1`: the Kd was > 4 mM (inactive).

For `Cn1c(O)c(C=NCC2CCNCC2)c(=O)n(C)c1=O`, the Kd is > 4 mM (inactive).

Consider `COc1ccc(-c2cc(=O)c3c(OC)c(OC)c(OC)c(OC)c3o2)cc1OC`, for which the Kd was > 4 mM (inactive).

With `Cc1ccc2c(C)c(C(=O)Nc3nnc(C)s3)oc2c1`, the Kd is > 4 mM (inactive).

Consider `O=C(O)c1cc(O)c2c(c1)C(=O)c1cc(O)cc(O)c1C2=O`, for which the Kd was > 4 mM (inactive).

Regarding `NC(=O)C1CCN(C(=S)Nc2ccccc2)CC1`, the Kd is > 4 mM (inactive).

For the molecule `Cc1cc(=O)[nH]c2ccccc12`, the Kd was > 4 mM (inactive).

Take `C=C1CCC(=O)C(C)CCC2C1CC2(C)C` (stereo unspecified): the Kd was > 4 mM (inactive).

For the molecule `CCOC(=O)c1c(C)cc(O)c(C)c1O`, the Kd is > 4 mM (inactive).

Take `Cn1nc(C(=O)N2CCOCC2)c2ccccc2c1=O`: the Kd was > 4 mM (inactive).

Take `NCc1ccc2c(c1)OCO2`: the Kd was > 4 mM (inactive).

In the case of `NC(=O)CCn1c(=O)oc2ccccc21`, the Kd was > 4 mM (inactive).

Turning to `O=C1NC(=O)C(C(=S)Nc2ccccc2)C(=O)N1`, the Kd was > 4 mM (inactive).

Take `CC(=O)Nc1ccn(-c2ccccc2)n1`: the Kd is > 4 mM (inactive).

Regarding `COc1ccc(-c2nc3nc(C)cc(C)n3n2)cc1`, the Kd was > 4 mM (inactive).

Regarding `Cc1cc2c(N)cccc2nn1`, the Kd was > 4 mM (inactive).

For `CC(C)(O)CC[C@@H](O)[C@](C)(O)C1CC[C@@]2(O)C3=CC(=O)C4C[C@@H](O)[C@@H](O)C[C@]4(C)C3CC[C@]12C` (stereo partly specified), the Kd is > 4 mM (inactive).

For the molecule `CC1CN(C2=NCCN2)CC(C)O1` (stereo unspecified), the Kd was > 4 mM (inactive).

Regarding `Cc1cc(C(=O)NCc2cccs2)cs1`, the Kd is > 4 mM (inactive).

Take `C[C@H]1O[C@@H](O[C@H]2[C@@H](O)C[C@H](O[C@H]3[C@@H](O)C[C@H](O[C@H]4CC[C@]5(C)C6CC[C@]7(C)[C@@H](C8=CC(=O)OC8)CC[C@]7(O)C6CC[C@@H]5C4)O[C@@H]3C)O[C@@H]2C)C[C@H](O)[C@@H]1O` (stereo partly specified): the Kd is > 4 mM (inactive).

On to `OCC1CCCC1O` (stereo unspecified), for which the Kd was > 4 mM (inactive).

On to `Cc1sc2nc(-c3ccco3)oc(=O)c2c1C`, for which the Kd is > 4 mM (inactive).

For `O=C(Nc1nc2ccccc2s1)c1ccc(=O)[nH]n1`, the Kd is > 4 mM (inactive).

On to `NC(=O)C1CCN(CN2C(=O)c3ccccc3C2=O)CC1`, for which the Kd was > 4 mM (inactive).

As for `O=C1CC(=O)N2N=C(c3ccccc3)SC2=N1`, the Kd was > 4 mM (inactive).

Take `O=C(O)CCCNC(=O)c1ccccc1C(=O)O`: the Kd was > 4 mM (inactive).

With `CC(C)Nc1nc2n(c(=O)n1)CCN2C(C)C`, the Kd was > 4 mM (inactive).

`CN(C)c1ccc(C2CC(=O)CC(=O)C2)cc1`: the Kd was > 4 mM (inactive).

In the case of `C=C1C([C@]2(C)C(CC(=O)OC)[C@@](C)(COC(C)=O)OC(=O)C[C@@H]2OC(C)=O)[C@@H](OC=O)[C@H](OC(=O)C(O)C(C)CC)[C@@]2(C)[C@H](c3ccoc3)CC(=O)C12O` (stereo partly specified), the Kd is > 4 mM (inactive).

For the molecule `CS(=O)(=O)N1CCN(c2ccccc2F)CC1`, the Kd was > 4 mM (inactive).

Take `CC(=O)Nc1cccc(-c2nnc3n2CC(C)S3)c1` (stereo unspecified): the Kd was > 4 mM (inactive).

Regarding `Cc1cc(SCC(=O)c2ccccc2)nc(=O)[nH]1`, the Kd was > 4 mM (inactive).

`CS(=O)(=O)N1CCN(C(=O)c2ccccc2)C1`: the Kd was > 4 mM (inactive).

Turning to `Nc1ncnc2nc[nH]c12`, the Kd was > 4 mM (inactive).

Regarding `Cc1cccc(OCc2nnc(N)s2)c1`, the Kd is > 4 mM (inactive).

Consider `O=C(O)c1ccccc1C(=O)Nc1ccccc1`, for which the Kd was > 4 mM (inactive).

Take `CCOC(=O)CNc1ncnc2c1nnn2CC`: the Kd was > 4 mM (inactive).

For the molecule `O=C(O[C@@H]1Cc2c(O)cc(O)cc2O[C@@H]1c1ccc(O)c(O)c1)c1cc(O)c(O)c(O)c1`, the Kd is > 4 mM (inactive).

As to `c1cc(CNc2ccc3c(c2)OCCO3)ccn1`, the Kd is > 4 mM (inactive).

Consider `Oc1ccc(-n2cncn2)cc1`, for which the Kd was > 4 mM (inactive).

In the case of `COc1cc2c(cc1OC)[C@@H]1C(=O)c3ccc(O)c(CC=C(C)C)c3O[C@@H]1CO2`, the Kd is > 4 mM (inactive).

In the case of `CC(=O)Nc1ccn(Cc2c(F)cccc2Cl)n1`, the Kd is > 4 mM (inactive).

On to `O=C1Nc2ccc(S(=O)(=O)NCCO)c3cccc1c23`, for which the Kd is > 4 mM (inactive).

For `O=C(Nc1ccon1)c1ccc(Br)o1`, the Kd was > 4 mM (inactive).

As for `CSc1nc(C)cc(Oc2ccc(=O)n(C)n2)n1`, the Kd was > 4 mM (inactive).

As to `O=C(O)CS(=O)(=O)c1ccccc1`, the Kd was > 4 mM (inactive).

As to `COc1c(OC)c2occc2c2oc(=O)ccc12`, the Kd was > 4 mM (inactive).

Regarding `O=C(Nc1c[nH]c(=O)[nH]c1=O)c1cccs1`, the Kd was > 4 mM (inactive).

Take `CC(C)CCCC(C)[C@H]1CCC2C3CC[C@@H]4C[C@H](O)CC[C@]4(C)C3CC[C@@]21C` (stereo partly specified): the Kd is > 4 mM (inactive).

In the case of `O=C(Cc1c(F)cccc1Cl)Nc1ccon1`, the Kd is > 4 mM (inactive).

Consider `Cc1nn2c(=O)c(NC(=O)c3ccccc3)cnc2s1`, for which the Kd is > 4 mM (inactive).

As for `CC(=O)Nc1nc(-c2cccs2)cs1`, the Kd is > 4 mM (inactive).

For `Cc1cc(=O)cc(C)n1-c1ccccc1N`, the Kd is > 4 mM (inactive).

`Nc1nonc1-c1nc2ccccc2[nH]1`: the Kd was > 4 mM (inactive).

As to `O=C(O)CCC(=O)Nc1nccs1`, the Kd is > 4 mM (inactive).

On to `C[C@@H]1CC[C@@]2(NC1)O[C@H]1C[C@H]3C4CC=C5C[C@@H](O)CC[C@]5(C)C4CC[C@]3(C)C1[C@@H]2C` (stereo partly specified), for which the Kd was > 4 mM (inactive).

As for `CCC(=O)Nc1cc(C(C)C)c(O)cc1C`, the Kd was > 4 mM (inactive).

For `O=S1(=O)CCC(NCCO)C1` (stereo unspecified), the Kd is > 4 mM (inactive).

Take `CCc1c(C)[nH]c(=S)c(C(N)=O)c1C`: the Kd was > 4 mM (inactive).

Take `Cc1nc2ccc(C(=O)O)cc2nc1C`: the Kd was > 4 mM (inactive).

`Cc1cc[n+](-c2nc([O-])sc2C=O)cc1`: the Kd was > 4 mM (inactive).

Regarding `COC(=O)c1cncc(C(=O)OC)c1`, the Kd was > 4 mM (inactive).
